This is an account of results in patent US4876262A, “Piperidine derivative and pharmaceutical composition containing the same” (Eisai Co., Ltd., priority 1986, dated 1989).

Structures can show the parent of a compound that is named as a salt. Where two headings read alike, the source gives them in different places.

Data set [1] concerns isolated myocardium of guinea-pigs (right ventricular papillary muscles). Description: Effects on the action potential duration in the isolated myocardium of guinea-pigs. Further details: species or system guinea-pig (male, Hartley strain). As to conditions: Cavia porcellus, 10 min; for activation at 10 µM / activation at 1 µM: read-out: APD90 prolongation; for inhibition at 10 µM / inhibition at 1 µM: read-out: Vmax inhibition.
Procedure: Right ventricular papillary muscles were isolated from male guinea-pigs of Hartley strain weighing 300 to 400 g and fixed at the bottom of an acrylic bath with pins. […] The muscles were stimulated at 1 Hz with rectangular pulses of 1 msec duration and supramaximal voltage. Action potentials were recorded using conventional glass microelectrodes filled with 3M KCl. The duration of the action potential and the maximum velocity of the upstroke of the action potential (Vmax) were determined. Each of the test compounds was included in Tyrode solution at 10^-6 or 10^-5 M and perfused.
Sotalol, a beta-adrenoceptor antagonist was employed as the reference drug because this compound is known to prolong the duration of the myocardial action potential.

Data set [2] deals with anesthetized dogs (QTc-interval of ECG). Description: Effects of QTc-interval of ECG in anesthetized dogs. It is filed as in vivo, Mongrel dogs. As to conditions: forearm vein; for change in vivo at 1 mg/kg: 1 mg/kg (1.0 mg/kg).
Data set [3] can be described thus: in vivo. The note with it: mouse, iv. As to the method:
Male ddy mice weighing 20 to 30 g were used for the acute toxicity test. LD50 values were calculated by the up-and-down method. […] The dose to be administered was determined on the basis of the volume of the stock solution. The solutions were injected into a tail vein by means of a 1-ml tuberculin syringe. The judgement of survival or death was made 30 min after each injection.

[4] abbreviates: 10^-5 M, another 10 min after 10^-6 M, 1 Hz, 37° C.
Setting [5] is: 10^-6 M, first 10 min, 1 Hz, 37° C.
The mark [6] stands for this setting: Canis lupus familiaris, iv, 0.1 mg/kg, enflurane anesthesia, read-out: prolongation of QTc-interval.
Where [7] appears, read: Canis lupus familiaris, iv, enflurane anesthesia, read-out: prolongation of QTc-interval.

Usually inhibition stands for the relative decrease from the control value, in per cent. Consider `COc1ccc(CCN2CCC(C(=O)c3ccc(NS(C)(=O)=O)cc3)CC2)cc1OC` [Compound E, 1-[2-(3,4-dimethoxyphenyl)ethyl]-4-(4-methylsulfonylaminobenzoyl)piperidine hydrochloride], for which, in data set [1] (setting [4]), the activation at 10 µM amounted to 14% and the inhibition at 10 µM was determined as 0%. Moreover, in data set [1] (setting [5]), the activation at 1 µM was 12% and the inhibition at 1 µM worked out at 0%.

For the compound `CS(=O)(=O)Nc1ccc(C(=O)C2CCN(Cc3ccc4nccn4c3)CC2)cc1` [Compound Q, 1-(6-imidazo[1,2-a]pyridylmethyl)-4-(4-methylsulfonylaminobenzoyl)piperidine dihydrochloride], in data set [1] (setting [4]), the activation at 10 µM was found to be 23% and the inhibition at 10 µM was 0%. For the same compound, in data set [1] (setting [5]), the activation at 1 µM came to 4% and the inhibition at 1 µM turned out to be 0%.

One may read the LD50 as the dose expected to kill half of the subjects tested. Read a low LD50 as greater toxicity. `CS(=O)(=O)Nc1ccc(C(=O)C2CCN(Cc3ccncc3)CC2)cc1.Cl.Cl` [Compound G, 4-(4-methylsulfonylaminobenzoyl)-1-(4-pyridyl)methylpiperidine dihydrochloride]: in data set [1] (setting [4]), the activation at 10 µM is 33% and the inhibition at 10 µM came out at 0%. Further, in data set [1] (setting [5]), the activation at 1 µM was determined as 18% and the inhibition at 1 µM turned out to be 0%. For the same compound, the change in vivo at 0.1 mg/kg in data set [2] (setting [6]) is 17%. Also, in data set [2] (setting [7]), the change in vivo at 0.3 mg/kg amounted to 27% and the change in vivo at 1 mg/kg was found to be 35%. Further, the LD50 at 0.5 h in data set [3] is 108 mg/kg.

Turning to `CS(=O)(=O)Nc1ccc(C(=O)C2CCN(CCc3ccc(Cl)cc3)CC2)cc1` [Compound C, 1-[2-(4-chlorophenyl)ethyl]-4-(4-methylsulfonylaminobenzoyl)piperidine hydrochloride], in data set [1] (setting [4]), the activation at 10 µM amounted to 15% and the inhibition at 10 µM was determined as 0%. Moreover, in data set [1] (setting [5]), the activation at 1 µM turned out to be 7% and the inhibition at 1 µM turned out to be 0%.

Turning to `CS(=O)(=O)Nc1ccc(C(=O)C2CCN(Cc3ccccc3)CC2)cc1` [Compound A, 1-benzyl-4-(4-methylsulfonylaminobenzoyl)piperidine hydrochloride], in data set [1] (setting [4]), the activation at 10 µM turned out to be 7% and the inhibition at 10 µM is 0%. In data set [1] (setting [5]), the activation at 1 µM came out at 0% and the inhibition at 1 µM was determined as 0%.

In the case of `CS(=O)(=O)Nc1ccc(C(=O)C2CCN(CCCc3ccncc3)CC2)cc1.Cl.Cl` [Compound R, 4-(4-methylsulfonylaminobenzoyl)-1-(3-(4-pyridyl)propyl)piperidine dihydrochloride], in data set [1] (setting [4]), the activation at 10 µM came to 27% and the inhibition at 10 µM turned out to be 0%. In data set [1] (setting [5]), the activation at 1 µM came out at 18% and the inhibition at 1 µM turned out to be 0%. The change in vivo at 0.03 mg/kg in data set [2] (Canis lupus familiaris, iv, 0.03 mg/kg, enflurane anesthesia, read-out: prolongation of QTc-interval) was determined as 13%. Further, the change in vivo at 0.1 mg/kg in data set [2] (setting [6]) was found to be 21%. Besides, in data set [3], the LD50 at 0.5 h was 138 mg/kg.

With `CS(=O)(=O)Nc1ccc(C(=O)C2CCN(CCc3cccnc3)CC2)cc1` [Compound I, 4-(4-methylsulfonylaminobenzoyl)-1-[2-(3-pyridyl)ethyl]piperidine dihydrochloride], in data set [1] (setting [4]), the activation at 10 µM was 17% and the inhibition at 10 µM was found to be 0%. In data set [1] (setting [5]), the activation at 1 µM worked out at 10% and the inhibition at 1 µM came out at 0%.

With `CS(=O)(=O)Nc1ccc(C(=O)C2CCN(CCc3ccncc3)CC2)cc1.Cl.Cl` [Compound J, 4-(4-methylsulfonylaminobenzoyl)-1-[2-(4-pyridyl)ethyl]piperidine dihydrochloride], in data set [1] (setting [4]), the activation at 10 µM was determined as 10% and the inhibition at 10 µM stood at 0%. In addition, in data set [1] (setting [5]), the activation at 1 µM is 4% and the inhibition at 1 µM turned out to be 0%. The change in vivo at 0.1 mg/kg in data set [2] (setting [6]) came to 21%. Also, the change in vivo at 0.3 mg/kg in data set [2] (setting [7]) was 42%. Moreover, the LD50 at 0.5 h in data set [3] was found to be 195 mg/kg.

On to `CS(=O)(=O)Nc1ccc(C(=O)C2CCN(CCc3cccs3)CC2)cc1.CS(=O)(=O)O` [Compound F, 4-(4-methylsulfonylaminobenzoyl)-1-[2-(2-thienyl)ethyl]piperidine methylsulfonate], for which, in data set [1] (setting [4]), the activation at 10 µM is 11% and the inhibition at 10 µM is 0%. In addition, in data set [1] (setting [5]), the activation at 1 µM was 8% and the inhibition at 1 µM came to 0%. In data set [3], this compound displayed an LD50 at 0.5 h of 112 mg/kg.

Take `CS(=O)(=O)Nc1ccc(C(=O)C2CCN(C(=O)c3ccc(NS(C)(=O)=O)cc3)CC2)cc1` [Compound D, 1,4-di(4-methylsulfonylaminobenzoyl)piperidine hydrochloride]: in data set [1] (setting [4]), the activation at 10 µM worked out at 10% and the inhibition at 10 µM came to 0%. Also, in data set [1] (setting [5]), the activation at 1 µM is 3% and the inhibition at 1 µM was 0%.

As for `CS(=O)(=O)Nc1ccc(C(=O)C2CCN(CC(=O)c3cnc4ccccn34)CC2)cc1.Cl.Cl` [Compound N, 1-[2-(3-imidazo[1,2-a]pyridyl)-2-oxo-ethyl]-4-(4-methylsulfonylaminobenzoyl)piperidine dihydrochloride], in data set [1] (setting [4]), the activation at 10 µM came out at 8% and the inhibition at 10 µM was 0%. Further, in data set [1] (setting [5]), the activation at 1 µM was 8% and the inhibition at 1 µM turned out to be 0%. This compound also showed an LD50 at 0.5 h in data set [3] of 224 mg/kg.

As for `Cc1cccc(CCN2CCC(C(=O)c3ccc(NS(C)(=O)=O)cc3)CC2)n1` [Compound S, 1-(2-(6-methyl-2-pyridyl)ethyl)-4-(4-methylsulfonylaminobenzoyl)piperidinedihydrochloride], in data set [1], the activation at 1 µM came out at 20%, the activation at 10 µM was found to be 30%, the inhibition at 1 µM was determined as 0% and the inhibition at 10 µM is 0%.

`CS(=O)(=O)Nc1ccc(C(=O)C2CCN(CCc3ccccc3)CC2)cc1.Cl` [Compound B, 4-(4-methylsulfonylaminobenzoyl)-1-(2-phenylethyl)piperidine hydrochloride]: in data set [1] (setting [4]), the activation at 10 µM turned out to be 34% and the inhibition at 10 µM is 19%. For the same compound, in data set [1] (setting [5]), the activation at 1 µM worked out at 26% and the inhibition at 1 µM was determined as 0%. The compound further displayed a QTc-interval after compound in data set [2] (0.1 mg/kg, from 435 msec before) of 665 ms. For the same compound, the change in vivo at 0.1 mg/kg in data set [2] (setting [6]) amounted to 51%. This compound gave a 50% lethal dose (LD50) at 0.5 h in data set [3] of 100 mg/kg.

`CS(=O)(=O)Nc1ccc(C(=O)C2CCN(Cc3cn4ccccc4n3)CC2)cc1` [Compound O, 1-(1-imidazo[1,2-a]pyridylmethyl)-4-(4-methylsulfonylaminobenzoyl)piperidine dihydrochloride]: in data set [1] (setting [4]), the activation at 10 µM was 12% and the inhibition at 10 µM is 5%. Further, in data set [1] (setting [5]), the activation at 1 µM was found to be 6% and the inhibition at 1 µM is 0%. Also, the LD50 at 0.5 h in data set [3] was found to be 302 mg/kg.

`CS(=O)(=O)Nc1ccc(C(=O)C2CCN(CCc3ccccn3)CC2)cc1` [Compound H, 4-(4-methylsulfonylaminobenzoyl)-1-[2-(2-pyridyl)ethyl]piperidine dihydrochloride]: in data set [1] (setting [4]), the activation at 10 µM was found to be 5% and the inhibition at 10 µM is 0%. Moreover, in data set [1] (setting [5]), the activation at 1 µM turned out to be 2% and the inhibition at 1 µM was determined as 0%.

As to `CCN1CCC(C(=O)c2ccc(NS(C)(=O)=O)cc2)CC1` [Compound P, 1-ethyl-4-(4-methylsulfonylaminobenzoyl)piperidine hydrochloride], in data set [1] (setting [4]), the activation at 10 µM worked out at 23% and the inhibition at 10 µM was found to be 2%. Also, in data set [1] (setting [5]), the activation at 1 µM was determined as 7% and the inhibition at 1 µM was 0%. The change in vivo at 0.1 mg/kg in data set [2] (setting [6]) is 7%. Moreover, in data set [2] (setting [7]), the change in vivo at 0.3 mg/kg stood at 14%.

Consider `CS(=O)(=O)Nc1ccc(C(=O)C2CCN(Cc3cnc4ccccc4c3)CC2)cc1.Cl.Cl` [Compound M, 4-(4-methylsulfonylaminobenzoyl)-1-(3-quinolylmethyl)piperidine dihydrochloride], for which, in data set [1] (setting [4]), the activation at 10 µM turned out to be 5% and the inhibition at 10 µM is 0%. In addition, in data set [1] (setting [5]), the activation at 1 µM came to 3% and the inhibition at 1 µM was 0%. For the same compound, the change in vivo at 0.1 mg/kg in data set [2] (setting [6]) is 7%. In data set [2] (setting [7]), the change in vivo at 0.3 mg/kg was found to be 13% and the change in vivo at 1 mg/kg turned out to be 21%. The LD50 at 0.5 h in data set [3] is 112 mg/kg.

Regarding `CS(=O)(=O)Nc1ccc(C(=O)C2CCN(C(=O)c3cccnc3)CC2)cc1` [Compound K, 4-(4-methylsulfonylaminobenzoyl)-1-nicotinoylpiperidine], in data set [1] (setting [4]), the activation at 10 µM is 24% and the inhibition at 10 µM was 14%. In data set [1] (setting [5]), the activation at 1 µM worked out at 9% and the inhibition at 1 µM was determined as 0%.

For the compound `CS(=O)(=O)Nc1ccc(C(=O)C2CCN(Cc3ccc4ccccc4n3)CC2)cc1.Cl.Cl` [Compound L, 4-(4-methylsulfonylaminobenzoyl)-1-(2-quinolylmethyl)piperidine dihydrochloride], in data set [1] (setting [4]), the activation at 10 µM was found to be 26% and the inhibition at 10 µM worked out at 2%. Besides, in data set [1] (setting [5]), the activation at 1 µM was found to be 18% and the inhibition at 1 µM came to 0%. Besides, in data set [2] (setting [6]), the change in vivo at 0.1 mg/kg was 31%. The change in vivo at 0.3 mg/kg in data set [2] (setting [7]) was found to be 56%. The LD50 at 0.5 h in data set [3] was 112 mg/kg.

As for `CC(C)NCC(O)c1ccc(NS(C)(=O)=O)cc1` (centres unmarked) [Sotalol, reference compound], in data set [1] (setting [4]), the activation at 10 µM was determined as 7% and the inhibition at 10 µM amounted to 0%. In addition, in data set [1] (setting [5]), the activation at 1 µM amounted to 0% and the inhibition at 1 µM was 0%. For the same compound, the change in vivo at 1 mg/kg in data set [2] (setting [7]) is 12%. Moreover, the LD50 at 0.5 h in data set [3] stood at 113 mg/kg.
